Assay results from US20240099998A1, “COMPOSITIONS AND METHODS FOR INDUCING DEFECATION” (priority 2021, published 2024).

Key:
[1] = system: anesthetized naïve (spinal intact) rats, rectal pressure; assay: Rectal (colorectal) pressure recording via balloon catheter after intrarectal dosing in anesthetized spinal intact rats; format: in vivo, rat
Procedure: General: In vivo studies were performed in anesthetized, spinally intact rats (N=10). Adult male Sprague Dawley rats (Charles River, 250-300 g) were housed at an AAALAC approved facility in cages (2-3/cage) with free access to water and food in a colony room that was maintained on a 12 hr light/12 hr dark cycle 1-2 weeks before the experiment. Rats were anesthetized with urethane (1.2-1.4 g/kg subcutaneous injection). Surgical procedures were then performed with the addition of isoflurane anesthesia (0.05-1.5% in O2) as the full anesthetic effect of urethane takes about 1-2 hrs.
A catheter filled with heparinized saline (30 unit/ml) was inserted into the carotid artery and connected to a pressure transducer for measurement of blood pressure and heart rate. A catheter was inserted into the jugular vein for intravenous (i.v.) administration of drugs.
Colorectal Contractility: Colorectal pressures were measured via a latex balloon catheter (length 2-3 cm) inserted (˜3-4 cm) into the distal colorectal region. The catheter was connected to a pressure monitoring system. The pressure in the balloon catheter was slowly increase to 10-15 mmHg by infusing saline (0.2-0.5 ml total volume) and this pressure was maintained throughout the study. This allowed drug induced changes in colorectal pressure to be monitored. Parameters measured include peak colorectal pressure response, duration of time above baseline activity (in the 1st 5 min after drug administration), area under the curve (measured during the 1st 5 min after drug administration) and the number of contractile events after vehicle and drug administration.
Dosing: Intrarectal TRPV1 agonists were administered in a dose range of 0.01-2% wt/vol. Nonivamide, OEA, OLDA and capsaicin were dissolved in 95% ethanol at 20-100 mg/mL and then diluted to 0.01-2% with the vehicle (Tween-80:95% ethanol:saline in a ratio of 10:10:80) and administered intrarectally as a solution using a small gauge tube, or a solution soaked cotton wool plug, to mimic a suppository-like dosage form.
Methods: The TRPV1 receptor agonist nonivamide was administered to anesthetized spinal intact male rats (N=6) instrumented for rectal pressure recording via a balloon catheter inserted into the rectum 3-4 cm from the anus. A 0.1% solution (0.2 mL of a 1 mg/ml solution in Tween-80:ethanol:saline (ratio 10:10:80)) of nonivamide was administered via a 20 gauge feeding tube that was inserted ˜2 cm into the rectum. For comparison, vehicle (Tween-80:ethanol:saline in a ratio of 10:10:80) was administered using the same techniques.
Methods: The TRPV1 receptor agonist nonivamide was administered to anesthetized spinal intact male rats instrumented for rectal pressure recording via a balloon catheter inserted into the rectum 3-4 cm from the anus. A 1% solution (0.2 mL of a 10 mg/ml solution in Tween-80:ethanol:saline (ratio 10:10:80)) of nonivamide was administered via a 20 gauge feeding tube that was inserted 2-3 cm into the rectum.
Methods: Nonivamide was administered to a naive anesthetized male rat instrumented for rectal pressure recording via a balloon catheter inserted into the rectum 2-4 cm from the anus. To mimic a suppository dosage form, nonivamide (1%) was administered via a fluid-soaked small cotton wool plug. The cotton wool plug was placed into the anal canal at the distal rectum.
Methods: OAE (N=4) was administered to anesthetized naïve male rats (N=5) instrumented for rectal pressure recording via a balloon catheter inserted into the rectum 3-4 cm from the anus. OEA was administered as 0.01-0.2% solution (0.2 mL of a […] solution in Tween-80:95% ethanol:saline (ratio 10:10:80)) via a small cotton wool plug soaked in 0.2 mL of solution, to mimic a suppository dosage form, that was inserted into the rectum. For comparison, vehicle was administered to all rats using the same techniques. […]

[2] = system: conscious spinal intact rats, defecation; assay: Defecation in conscious rats monitored in metabolism cages after intrarectal dosing; format: in vivo, rat
Procedure: Defecation in awake animals was monitored in metabolism cages. Animals were habituated to handling and the metabolism cages on 2-4 occasions prior to dosing and were then randomized to a treatment arm. Rats were weighed and placed into metabolism cages for 10 min prior to intrarectal administration of vehicle or TRPV1 agonist. The number of fecal pellets and timing of events were recorded by trained personnel that were blinded to treatment. Fecal weight was weighed at 20 min post dosing.
Defecation in conscious rats was monitored in metabolism cages. Rats were habituated to handling and the metabolism cages on 2-4 occasions before dosing, then randomized to the treatment arm. Rats were weighed and placed into metabolism cages for 10 min prior to receiving an intrarectal dose of vehicle or capsaicin. Since manual stimulation during intrarectal dosing in conscious rats can induce defecation, palpation of the distal rectum was performed to remove any fecal pellets located in the region of the anal sphincter. […] Once the anal sphincter had ceased contracting/relaxing (15-90 s) a fine catheter (22 G soft/flexible blunt tip catheter) was used to dose the vehicle or capsaicin, as this method produced little manual stimulation. Capsaicin was prepared as a 0.01, 0.1 or 1% solution (0.1, 1 or 10 mg/ml in tween-80/ethanol/saline (ratio of 10/10/80) or vehicle. Dose volumes were 0.1 mL and administered via the catheter inserted ˜1 inch through the anus into the rectum. The number of fecal pellets and timing of events were recorded by trained personnel blinded to the treatment. Fecal weight was recorded at 20 min post dosing.

[3] = system: anesthetized acute T9-transected SCI rat, rectal pressure; assay: Rectal pressure recording in anesthetized acute spinal cord injured (SCI) rat; format: in vivo; settings: cotton ball suppository soaked in 50 uL of 0.2% solution, acute T9-transected SCI female rat
Procedure: For the acute SCI model, animals were anesthetized with urethane (1.0-1.4 g/kg subcutaneous injection), the skin and muscle on the dorsal side at the level of the thoracic vertebrae were incised, and the spinal cord was carefully exposed by a laminectomy and transected at T8-T10 spinal level. Gelfoam^R was placed at the incision site and the muscle and skin overlying the vertebrae were closed with wound clips. The spinal cord was transected at least 60 min before starting the experimental protocol.
For all rectal contractility studies, animals were anesthetized with urethane (1.0-1.4 g/kg subcutaneous injection). […]
Rectal Contractility: Rectal pressures were measured via a latex balloon catheter (length 1.5-4 cm) inserted (˜4 cm) into the distal rectal region. […] Parameters measured included peak rectal pressure response, duration of time above baseline activity (in the 1st 5 min after drug administration), area under the curve (measured during the 1st 5 min after drug administration) and the number of contractile events after vehicle and drug administration.
Methods: Capsaicin was administered to 2 anesthetized female rats instrumented for rectal pressure recording via a balloon catheter inserted into the rectum 2-4 cm from the anus. […] Top and bottom traces in FIG. 9 were recorded from individual female rats.

[4] = system: rectal afferent terminals; settings: human subjects; cited from earlier work
conscious dogs, colon = settings: intracolonic administration; cited from earlier work
[5] = 0.2%, cotton wool plug soaked in 0.2 mL, N=1
[6] = cotton wool plug soaked in 0.2 mL of 0.2% solution
[7] = 0.01-0.2% solution, cotton wool plug soaked in 0.2 mL, intrarectal
[8] = intrarectal solution, conscious rats
[9] = 0.2% solution, 0.05-0.32 mL intrarectal
[10] = cotton ball suppository soaked in 50 uL of 0.2% solution, spinal intact naïve female rat
[11] = cotton wool plug (1% in FIG. 7A), intrarectal, N=3
[12] = 0.1% solution, 0.2 mL intrarectal
[13] = 1% solution, 0.2 mL intrarectal

In the case of `CCCCCCCC/C=C\CCCCCCCC(=O)NCCc1ccc(O)c(O)c1` [OLDA, N-Oleoyldopamine], the “duration of rectal pressure increase” value [1, 5] is reported as 5 min, the “onset time of rectal pressure increase” value [1, 5] is reported as 0.5 to 2 min and the “rectal response: expulsion of balloon catheter” value (“rectal response: expulsion” for short) [1, 6] is reported as “sufficient to expel the balloon catheter”.

With `CCCCCCCC/C=C\CCCCCCCC(=O)NCCO` [OEA, Oleoylethanolamide] the “duration of rectal pressure increase” value [1, 7] was 5 to 10 min, the “onset time of rectal pressure increase” value [1, 7] was 0.5 to 2 min and the “defecation in anesthetized rat (FIG. 5)” value [1, 6] was “defecation of fecal pellets”. The “rectal response: expulsion” value [1, 6] was “sufficient to expel the balloon catheter”.

For `COc1cc(CNC(=O)CCCC/C=C/C(C)C)ccc1O` [Capsaicin], the “number of fecal pellets expelled compared to vehicle” value ([2]; 1% solution, 0.1 mL intrarectal, 10 min after dosing, N=6, p<0.05) was “significantly increased”, the “total weight of fecal pellets expelled compared to vehicle” value ([2]; 1% solution, 0.1 mL intrarectal, 20 min after dosing, N=6, p<0.05) was “significantly increased” and the “time to completion of defecation” value [2, 8] was at most 10 min. The time to defecation [2, 8] was at most 5 min, the “duration of rectal pressure increase” value [3] was under 5 min and the “onset of rectal pressure increase” value [3] was under 2 min. The “duration of rectal pressure increase” value [1, 9] was 5 min, the “onset time of rectal pressure increase” value [1, 9] was 1 to 2 min and the “rats with transient rectal pressure increase” value ([1]; 0.2% solution, 0.05-0.32 mL intrarectal via PE50 tube, 4 males and 1 female) was 5 of 5. For the same compound, the peak colorectal pressure ([1]; 1% soaked cotton wool plug, FIG. 7A, example of one male rat) was about 40 mmHg, the “duration of rectal pressure increase” value [1, 10] was under 5 min and the “onset of rectal pressure increase” value [1, 10] was under 2 min. The “duration of increase in colorectal pressure” value [1, 11] was under 5 min, the “onset of increase in colorectal pressure” value [1, 11] was under 1 min and the “reported sensations after intrarectal administration” value [4] was “an urge to defecate”. The “effect on colon and defecation” value (conscious dogs, colon) was “initiate defecation”.

In the case of `CCCCCCCCC(=O)NCc1ccc(O)c(OC)c1` [Nonivamide], the “duration of rectal pressure increase” value [1, 12] is reported as 5 min, the “onset time of rectal pressure increase” value [1, 12] is reported as 1 to 2 min and the “rats with transient rectal pressure increase” value ([1]; 0.1% solution, 0.2 mL intrarectal via feeding tube, male rats) is reported as 6 of 6. The “duration of rectal pressure increase” value [1, 13] was 5 to 10 min, the “onset time of rectal pressure increase” value [1, 13] was 1 to 2 min and the “rectal response: expulsion” value ([1]; cotton wool plug soaked in 0.2 mL of 1% solution) was “sufficient to expel the balloon catheter”. For the same compound, the “onset of increase in rectal pressure” value ([1]; cotton wool plug soaked in 0.2 mL of 1% solution, 1 male rat) was at most 1 min.
